Results from article PMC6121307, “Cloning and Functional Characterisation of the Duplicated RDL Subunits from the Pea Aphid, Acyrthosiphon pisum” (International Journal of Molecular Sciences, 2018).
Where two headings read alike, the source gives them in different places.

What was measured:
An. gambiae RDL = tested on: An. gambiae RDL; design: method as in PMID 26296809; settings: 100 μM; expressed in Xenopus oocytes; cited from earlier work
A. mellifera RDL = tested on: A. mellifera RDL; design: method as in PMID 27288983; settings: 100 μM; expressed in Xenopus oocytes; cited from earlier work
[1] = tested on: cultured honey bee Kenyon cells; design: method as in PMID 11872245; settings: cited from earlier work
Apisum RDL1bd [2] = target: T1, Apisum RDL1bd (Acyrthosiphon pisum, UniProt A0A385J708); assay: Antagonistic actions of neonicotinoids on GABA-induced currents, two-electrode voltage-clamp in X. laevis oocytes; type: cell-based; settings: for effect on responses induced by GABA: 100 μM neonicotinoid
T1 sequence (A0A385J708 33-567): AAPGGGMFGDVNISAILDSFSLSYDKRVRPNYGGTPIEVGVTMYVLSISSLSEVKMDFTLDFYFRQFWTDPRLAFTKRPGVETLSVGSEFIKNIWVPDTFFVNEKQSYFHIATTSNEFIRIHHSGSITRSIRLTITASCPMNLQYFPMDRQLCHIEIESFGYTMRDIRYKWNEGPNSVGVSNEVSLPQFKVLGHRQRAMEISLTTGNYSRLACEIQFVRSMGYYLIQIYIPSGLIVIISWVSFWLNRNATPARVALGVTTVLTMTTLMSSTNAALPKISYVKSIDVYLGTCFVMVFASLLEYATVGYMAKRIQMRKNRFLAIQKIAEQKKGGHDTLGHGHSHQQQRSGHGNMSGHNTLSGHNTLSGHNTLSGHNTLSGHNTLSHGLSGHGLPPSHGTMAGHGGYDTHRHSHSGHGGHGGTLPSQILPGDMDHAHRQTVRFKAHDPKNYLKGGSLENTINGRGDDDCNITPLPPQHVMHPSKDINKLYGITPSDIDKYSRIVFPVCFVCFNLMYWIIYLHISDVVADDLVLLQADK
Procedure: (§1) Functional studies of Apisum RDL1ad, Apisum RDL1bd and Apisum RDL2b variant 1 were performed using the X. laevis expression system and two-electrode voltage-clamp electrophysiology. Stage V and VI X. laevis oocytes were harvested and rinsed with Ca^2+ free solution (82 mM NaCl, 2 mM KCl, 2 mM MgCl2, 5 mM HEPES, pH 7.4), before defolliculating with 1 mg/mL type IA collagenase (Sigma, St. Louis, MO, USA) in Ca^2+ free solution. Defolliculated oocytes were injected with 2.3 ng (23 nL) Apisum Rdl plasmid DNA into the nucleus of the oocyte and stored in standard Barth’s solution (supplemented with 50 µg/mL neomycin and 10 µg/mL penicillin/streptomycin) at 17.5 °C.
(§2) Oocytes 1–7 days post-injection were placed in a recording chamber and clamped at −60 mV with 3 M KCl filled borosilicate glass electrodes (resistance 0.5–5 MΩ) and an Oocyte Clamp OC-725C amplifier (Warner Instruments, CT, USA). Responses were recorded on a flatbed chart recorder (Kipp & Zonen BD-11E, Delft, The Netherlands). Oocytes were perfused with standard oocyte saline (SOS; 100 mM NaCl, 2 mM KCl, 1.8 mM CaCl2, 1 mM MgCl2, 5 mM HEPES, pH 7.6) at a flow rate of 10 mL/min. Oocytes were selected for experiments if stable after three or more consecutive challenges of GABA at EC50 concentration. The GABA EC50 concentration was determined using GABA concentration response curves, which were generated by challenging oocytes to increasing concentrations of GABA in SOS, with 3 min between challenges. Curves were calculated by normalising the GABA current responses to maximal responses induced by GABA before and after application.
(§3) Insecticides were initially diluted in dimethylsulphoxide (DMSO), before diluting to final concentrations in SOS.
(§4) For measuring the antagonistic actions of neonicotinoids, oocytes were initially incubated with a perfusion of the neonicotinoid in SOS for 6 min, before challenging with a combination of neonicotinoid and either the respective EC50 GABA concentration or 1 mM GABA.

Apisum RDL1ad [3] = target: T2, Apisum RDL1ad (Acyrthosiphon pisum, UniProt A0A385J708); assay: as above; type: cell-based; settings: for activity at 100 µM: read-out: % of GABA Response with 100 μM neonicotinoid
T2 sequence (A0A385J708 33-567): T1 sequence (A0A385J708 33-567)
Procedure: as §1, §2, §3, §4

Apisum RDL2b variant 1 [4] = target: T3, Apisum RDL2b variant 1 (Acyrthosiphon pisum, UniProt A0A385J709); assay: Fipronil inhibition of GABA EC50 induced currents, two-electrode voltage-clamp in X. laevis oocytes; type: cell-based; settings: GABA at EC50 (30 μM); 3 min pre-incubation; mean ± SEM
Procedure: as §1, §2
(§5) Insecticides were initially diluted in dimethylsulphoxide (DMSO), before diluting to final concentrations in SOS. […]
(§6) Data are presented as mean ± SEM of individual oocytes from three or more separate frogs. […] Statistical significance was determined as p < 0.05, performed using one-way ANOVA (Graphpad Software, CA, USA).

Apisum RDL1bd [5] = target: T1, Apisum RDL1bd; assay: as above; type: cell-based; settings: GABA at EC50 (50 μM); 3 min pre-incubation; mean ± SEM
Procedure: as §1, §2, §5, §6

Apisum RDL1ad [6] = target: T2, Apisum RDL1ad; assay: as above; type: cell-based; settings: GABA at EC50 (20 μM); 3 min pre-incubation; mean ± SEM
Procedure: as §1, §2, §5, §6

Apisum RDL2b var 1 = assay: Antagonistic actions of neonicotinoids on GABA-induced currents, two-electrode voltage-clamp in X. laevis oocytes; type: cell-based, Acyrthosiphon pisum
Procedure: as §1
as §2, with “The GABA EC50 concentration was determined using GABA concentration response curves, which were generated by challenging oocytes to increasing concentrations of GABA in SOS, with 3 min between challenges.” left out, “application. […]” for “application.”

Apisum RDL2b variant 1 [7] = target: T3, Apisum RDL2b variant 1; assay: GABA concentration response, two-electrode voltage-clamp in X. laevis oocytes; type: cell-based
Procedure: as §1, §2
(§7) Data are presented as mean ± SEM of individual oocytes from three or more separate frogs. The concentration of GABA required to evoke 50% of the maximum response (EC50), the concentration of fipronil required to inhibit 50% of the maximal GABA response (IC50), and the Hill coefficient (nH) were determined by non-linear regression using Graphpad Prism 5 (Graphpad Software, CA, USA). Statistical significance was determined as p < 0.05, performed using one-way ANOVA (Graphpad Software, CA, USA).

Apisum RDL1bd [8] = target: T1, Apisum RDL1bd; assay: as above; type: cell-based
Procedure: as §1, §2, §7

Apisum RDL1ad [9] = target: T2, Apisum RDL1ad; assay: as above; type: cell-based
Procedure: as §1, §2, §7

[10] = 100 μM neonicotinoid, GABA at 1 mM
[11] = 100 μM neonicotinoid, GABA at EC50 concentration
[12] = initial 250 μM GABA response, eggs clamped at −60 mV, mean ± SEM

## O=[N+]([O-])NC1=NCCN1Cc1ccc(Cl)nc1 [IMI, imidacloprid]
An. gambiae RDL
  action on RDL: acted as an antagonist
A. mellifera RDL
  action on RDL: acted as an antagonist
[1]
  effect on GABA-induced responses: reduce GABA-induced responses
Apisum RDL1bd [2]; GABA at 1 mM
  effect on responses induced by GABA: no detectable effect
Apisum RDL1bd [2]; GABA at EC50 concentration
  effect on responses induced by GABA: no detectable effect
Apisum RDL1bd [2]; GABA at EC50
  % of GABA Response with 100 μM neonicotinoid: 100%
Apisum RDL1ad [3]; [10]
  effect on responses induced by GABA: no detectable effect
Apisum RDL1ad [3]; [11]
  effect on responses induced by GABA: no detectable effect
Apisum RDL1ad [3]; GABA at EC50, 100 μM neonicotinoid
  activity at 100 µM: 100%

## CN/C(=N\[N+](=O)[O-])NCc1cnc(Cl)s1 [CLO, clothianidin]
Apisum RDL1bd [2]; GABA at 1 mM
  effect on responses induced by GABA: no antagonistic actions
Apisum RDL1bd [2]; GABA at EC50 concentration
  effect on responses induced by GABA: no antagonistic actions
Apisum RDL1bd [2]; GABA at EC50
  % of GABA Response with 100 μM neonicotinoid: 100%
Apisum RDL1ad [3]; [10]
  effect on responses induced by GABA: no antagonistic actions
Apisum RDL1ad [3]; [11]
  effect on responses induced by GABA: no antagonistic actions
Apisum RDL1ad [3]
  activity at 100 µM: 100%

## N#Cc1nn(-c2c(Cl)cc(C(F)(F)F)cc2Cl)c(N)c1[S+]([O-])C(F)(F)F (stereo not shown) [Fipronil, fipronil]
Apisum RDL2b variant 1 [4]
  IC50: 0.72 ± 0.19 µM
Apisum RDL1bd [5]
  IC50: 0.18 ± 0.06 µM
Apisum RDL1ad [6]
  IC50: 0.64 ± 0.15 µM

## N#C/N=C1\SCCN1Cc1ccc(Cl)nc1 [THI, thiacloprid]
Apisum RDL2b var 1; GABA at EC50
  % of GABA Response with 100 μM neonicotinoid: 62 ± 2%
Apisum RDL2b var 1; GABA at EC50, listed as thiacloprid
  % of GABA Response with 100 μM neonicotinoid: 62%
Apisum RDL1bd [2]; GABA at EC50, 100 µM
  % of GABA Response with 100 μM neonicotinoid: 55 ± 7%
Apisum RDL1bd [2]; GABA at EC50, listed as thiacloprid, 100 µM
  % of GABA Response with 100 μM neonicotinoid: 55%

## NCCCC(=O)O [GABA, γ-aminobutyric acid]
Apisum RDL2b variant 1 [7]; [12]
  Imax (maximum amplitude): 1.4 ± 1.5 μA
Apisum RDL2b variant 1 [7]; mean ± SEM of 4-5 oocytes
  EC50: 28 ± 5.4 µM
  GABA nH (hill coefficient): 1.0 ± 0.1
Apisum RDL1bd [8]; [12]
  Imax (maximum amplitude): 1.4 ± 1.3 μA
Apisum RDL1bd [8]; mean ± SEM of 4-5 oocytes
  EC50: 51 ± 9.2 µM
  GABA nH (hill coefficient): 2.0 ± 0.3
Apisum RDL1ad [9]; [12]
  Imax (maximum amplitude): 1.6 ± 0.6 μA
Apisum RDL1ad [9]; mean ± SEM of 4-5 oocytes
  EC50: 23 ± 1.7 µM
  GABA nH (hill coefficient): 1.6 ± 0.1
